tested on: hepatocellular carcinoma cell line Hub-7; assay: Cell proliferation assay, Hub-7 (CELL-TITER GLO); format: cell-based; conditions: Hub-7 cells, 24 h incubation, cell viability by CELL-TITER GLO, top concentration 10 μM; read-out: EC50, Inhibition of Hub-7 Cell Proliferation
Procedure, shortened: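 Hub-7 cells, 4,000 per well, seeded overnight, then exposed 24 h to compound from 10 μM top in 3-fold serial dilution. Viability read by CELL-TITER GLO luminescence; EC50 derived and binned into potency categories.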

EC50 | Structure (SMILES)
200 to 1000 nM | C#Cc1nc(C(=O)NCCc2ccccc2Cl)cs1 [Compound C106, N-(2-Chlorophenethyl)-2-ethynylthiazole-4-carboxamide]
200 to 1000 nM | C#Cc1nc(C(=O)NCCc2cccc(Cl)c2)cs1 [Compound C110, N-(3-Chlorophenethyl)-2-ethynylthiazole-4-carboxamide]
≤ 200 nM | C#Cc1nc(C(=O)NCc2cccc3ccccc23)cs1 [Compound C113, 2-Ethynyl-N-(naphthalen-1-ylmethyl)thiazole-4-carboxamide]
≤ 200 nM | C#Cc1nc(C(=O)NCc2ccc(-c3ccccc3)cc2)cs1 [Compound C114, N-([1,1′-Biphenyl]-4-ylmethyl)-2-ethynylthiazole-4-carboxamide]
≤ 200 nM | C#Cc1nc(C(=O)NCc2cccc(-c3ccccc3)c2)cs1 [Compound C115, N-([1,1′-Biphenyl]-3-ylmethyl)-2-ethynylthiazole-4-carboxamide]
1000 to 5000 nM | C#Cc1nc(C(=O)N(CCC(=O)OCC)Cc2ccccc2)cs1 [Compound C116, Ethyl 3-(N-benzyl-2-ethynylthiazole-4-carboxamido)propanoate]
200 to 1000 nM | C#Cc1nc(C(=O)NCc2ccc(C(=O)OC)cc2)cs1 [Compound C117, Methyl 4-((2-ethynylthiazole-4-carboxamido)methyl)benzoate]
200 to 1000 nM | C#Cc1nc(NC(=O)CCc2ccccc2)cs1 [Compound C123, N-(2-Ethynylthiazol-4-yl)-3-phenylpropanamide]
200 to 1000 nM | C#Cc1nc(C(=O)NCc2cccc(C(=O)OC)c2)cs1 [Compound C124, Methyl 3-((2-ethynylthiazole-4-carboxamido)methyl)benzoate]
1000 to 5000 nM | C#Cc1nc(C(=O)N(CC(=O)OCC)Cc2ccccc2)cs1 [Compound C131, Ethyl N-benzyl-N-(2-ethynylthiazole-4-carbonyl)glycinate]
1000 to 5000 nM | C#Cc1nc(C(=O)N(CCO)Cc2ccccc2)cs1 [Compound C133, N-Benzyl-2-ethynyl-N-(2-hydroxyethyl)thiazole-4-carboxamide]
1000 to 5000 nM | C#Cc1nc(C(=O)NC[C@@H](O)c2ccccc2)cs1 [Compound C135, (S)-2-Ethynyl-N-(2-hydroxy-2-phenylethyl)thiazole-4-carboxamide]
> 5000 nM | C#Cc1nc(C(=O)NCc2ccccc2NC(C)=O)cs1 [Compound C136, N-(2-Acetamidobenzyl)-2-ethynylthiazole-4-carboxamide]
1000 to 5000 nM | C#Cc1nc(C(=O)N(C)Cc2ccccc2)cs1 [Compound C137, N-Benzyl-2-ethynyl-N-methylthiazole-4-carboxamide]
1000 to 5000 nM | C#Cc1nc(C(=O)NCCc2ccccc2)cs1 [Compound C138, 2-Ethynyl-N-phenethylthiazole-4-carboxamide]
1000 to 5000 nM | C#Cc1nc(C(=O)NCc2ccccc2N)cs1 [Compound C140, N-(2-Aminobenzyl)-2-ethynylthiazole-4-carboxamide]
200 to 1000 nM | C#Cc1nc(C(=O)NCc2ccccc2Cl)cs1 [Compound C143, N-(2-Chlorobenzyl)-2-ethynylthiazole-4-carboxamide]
1000 to 5000 nM | C#Cc1nc(C(=O)NCc2ccccc2OC)cs1 [Compound C144, 2-Ethynyl-N-(2-methoxybenzyl)thiazole-4-carboxamide]
> 5000 nM | C#Cc1csc(C(=O)NCc2ccccc2)n1 [Compound C145, N-Benzyl-4-ethynylthiazole-2-carboxamide]
1000 to 5000 nM | C#Cc1nc(C(=O)NCc2ccccc2)cs1 [Compound C148, N-Benzyl-2-ethynylthiazole-4-carboxamide]

Further lines, the compound ahead of its results:

Structure (SMILES) | EC50
C#Cc1nc(C(=O)NCc2ccc([N+](=O)[O-])cc2)cs1 [Compound C103, 2-Ethynyl-N-(4-nitrobenzyl)thiazole-4-carboxamide] | ≤ 200 nM
C#Cc1nc(C(=O)NCc2ccc(C#N)cc2)cs1 [Compound C104, N-(4-Cyanobenzyl)-2-ethynylthiazole-4-carboxamide] | 200 to 1000 nM
C#Cc1nc(C(=O)NCCc2cccc(S(C)(=O)=O)c2)cs1 [Compound C105, 2-Ethynyl-N-(3-(methylsulfonyl)phenethyl)thiazole-4-carboxamide] | 1000 to 5000 nM
C#Cc1nc(C(=O)NCc2cccc([N+](=O)[O-])c2)cs1 [Compound C107, 2-Ethynyl-N-(3-nitrobenzyl)thiazole-4-carboxamide] | 200 to 1000 nM
C#Cc1nc(C(=O)NCc2ccc(S(C)(=O)=O)cc2)cs1 [Compound C108, 2-Ethynyl-N-(4-(methylsulfonyl)benzyl)thiazole-4-carboxamide] | 1000 to 5000 nM
C#Cc1nc(C(=O)NCc2ncccc2Cl)cs1 [Compound C109, N-((3-Chloropyridin-2-yl)methyl)-2-ethynylthiazole-4-carboxamide] | 1000 to 5000 nM
C#Cc1nc(C(=O)NCc2ccccc2)c[nH]1 [Compound C111, N-Benzyl-2-ethynyl-1H-imidazole-4-carboxamide] | > 5000 nM
C#Cc1nc(C(=O)NCc2ccccc2-c2ccccc2)cs1 [Compound C112, N-([1,1′-Biphenyl]-2-ylmethyl)-2-ethynylthiazole-4-carboxamide] | 200 to 1000 nM
C#Cc1nc(C(=O)NCc2ccc(N)cc2)cs1 [Compound C118, N-(4-Aminobenzyl)-2-ethynylthiazole-4-carboxamide] | 200 to 1000 nM
C#Cc1nc(C(=O)NCc2ccn(C)n2)cs1 [Compound C119, 2-Ethynyl-N-((1-methyl-1H-pyrazol-3-yl)methyl)thiazole-4-carboxamide] | > 5000 nM
C#Cc1nc(C(=O)NCc2cnn(C)c2)cs1 [Compound C120, 2-Ethynyl-N-((1-methyl-1H-pyrazol-4-yl)methyl)thiazole-4-carboxamide] | > 5000 nM
C#Cc1nc(C(=O)NCc2ccc(O)cc2)cs1 [Compound C121, 2-Ethynyl-N-(4-hydroxybenzyl)thiazole-4-carboxamide] | 1000 to 5000 nM
C#Cc1nc(C(=O)NCCc2ccc(O)c(OC)c2)cs1 [Compound C122, 2-Ethynyl-N-(4-hydroxy-3-methoxyphenethyl)thiazole-4-carboxamide] | 1000 to 5000 nM
C#Cc1nc(C(=O)NCc2cccc(Cl)c2)cs1 [Compound C125, N-(3-Chlorobenzyl)-2-ethynylthiazole-4-carboxamide] | ≤ 200 nM
C#Cc1nc(C(=O)NCc2ccccn2)cs1 [Compound C126, 2-Ethynyl-N-(pyridin-2-ylmethyl)thiazole-4-carboxamide] | 1000 to 5000 nM
C#Cc1nc(C(=O)NCc2cccc(C#N)c2)cs1 [Compound C127, N-(3-Cyanobenzyl)-2-ethynylthiazole-4-carboxamide] | 200 to 1000 nM

Structure (SMILES) | EC50
C#Cc1nc(C(=O)NCCc2ccc(N)cc2)cs1 [Compound C128, N-(4-Aminophenethyl)-2-ethynylthiazole-4-carboxamide] | 1000 to 5000 nM
C#Cc1nc(C(=O)NCCc2ccc([N+](=O)[O-])cc2)cs1 [Compound C129, 2-Ethynyl-N-(4-nitrophenethyl)thiazole-4-carboxamide] | ≤ 200 nM
C#Cc1nc(C(=O)Nc2cccc3[nH]ncc23)cs1 [Compound C130, 2-Ethynyl-N-(1H-indazol-4-yl)thiazole-4-carboxamide] | 1000 to 5000 nM
C#Cc1ncc(C(=O)NCc2ccccc2)n1C [Compound C132, N-Benzyl-2-ethynyl-1-methyl-1H-imidazole-5-carboxamide] | > 5000 nM
C#Cc1nc(C(=O)Nc2cccc3cn[nH]c23)cs1 [Compound C134, 2-Ethynyl-N-(11H-indazol-7-yl)thiazole-4-carboxamide] | 1000 to 5000 nM
C#Cc1nc(C(=O)NCc2cccc3[nH]ccc23)cs1 [Compound C139, N-((1H-Indol-4-yl)methyl)-2-ethynylthiazole-4-carboxamide] | > 5000 nM
C#Cc1ncc(C(=O)NCc2ccccc2)s1 [Compound C141, N-Benzyl-2-ethynylthiazole-5-carboxamide] | 1000 to 5000 nM
C#Cc1nc(C(=O)NCc2ccccc2)co1 [Compound C142, N-Benzyl-2-ethynyloxazole-4-carboxamide] | > 5000 nM
C#Cc1nc(C(=O)N2CCN(c3ccc(-c4c(C)ccc5c4cnn5C)cc3)CC2)cs1 [Compound D1, (4-(4-(1,5-Dimethyl-1H-indazol-4-yl)phenyl)piperazin-1-yl)(2-ethynylthiazol-4-yl)methanone] | ≤ 200 nM
C#Cc1nc(C(=O)N2CCN(c3ccc(-c4cc(C(=O)OC)cc5c4cnn5C)cc3)CC2)cs1 [Compound D2, Methyl 4-(4-(4-(2-ethynylthiazole-4-carbonyl)piperazin-1-yl)phenyl)-1-methyl-1H-indazole-6-carboxylate] | ≤ 200 nM
C#Cc1nc(C(=O)N2CCN(c3ccc(-c4cc(C(=O)NC)cc5ncsc45)cc3)CC2)cs1 [Compound D3, 7-(4-(4-(2-Ethynylthiazole-4-carbonyl)piperazin-1-yl)phenyl)-N-methylbenzo[d]thiazole-5-carboxamide] | 200 to 1000 nM
C#Cc1nc(C(=O)N2CCN(c3ccc(-c4cc(C(=O)OC)cc5ncsc45)cc3)CC2)cs1 [Compound D4, Methyl 7-(4-(4-(2-ethynylthiazole-4-carbonyl)piperazin-1-yl)phenyl)benzo[d]-thiazole-5-carboxylate] | ≤ 200 nM
C#Cc1nc(C(=O)N2CCN(c3ccc(-c4cc(C(N)=O)cc5ncsc45)cc3)CC2)cs1 [Compound D5, 7-(4-(4-(2-Ethynylthiazole-4-carbonyl)piperazin-1-yl)phenyl)benzo[d]thiazole-5-carboxamide] | 1000 to 5000 nM
C#Cc1nc(C(=O)N2CCN(c3ccc(-c4cc(C(=O)N(C)C)cc5ncsc45)cc3)CC2)cs1 [Compound D6, 7-(4-(4-(2-Ethynylthiazole-4-carbonyl)piperazin-1-yl)phenyl)-N,N-dimethyl-benzo[d]thiazole-5-carboxamide] | ≤ 200 nM
C#Cc1ncc(C(=O)N2CCN(c3ccc(-c4cccc5ncsc45)cc3)CC2)s1 [Compound D7, (4-(4-(benzo[d]thiazol-7-yl)phenyl)piperazin-1-yl)(2-ethynylthiazol-5-yl)methanone] | ≤ 200 nM
